Where “and” joins values, the source holds several entries; their conditions need not be identical. Equal entries are not always repeated. Where two headings read alike, the source gives them in different places.
Tests used:
in vitro [1] = settings: human; for CC50: CC50, cytotoxicity to Huh 7 cells (Fig. 4B, SADS-CoV panel)
[2] = tested on: SARS-CoV-2 live virus (SARS-CoV-2/WH-09/human/2020/CHN); experiment: microbe, parasite or virus in culture; type: cell-based
[3] = tested on: MERS-CoV pseudotyped virus; experiment: microbe, parasite or virus in culture; type: cell-based
SARS-CoV-2 trVLP [4] = type: cell-based
SARS-CoV-2 trVLP [5] = experiment: microbe, parasite or virus in culture
[6] = tested on: SARS-CoV pseudotyped virus; experiment: microbe, parasite or virus in culture; type: cell-based; settings: for EC50: read-out: EC50 against SARS-CoV pseudotyped virus
PEDV strain CV777 = experiment: microbe, parasite or virus in culture; type: cell-based, porcine epidemic diarrhea virus (PEDV)
GX_P2V [7] = experiment: organism not typed; type: cell-based, Guangxi pangolin-CoV (GX_P2V)
GX_P2V [8] = experiment: microbe, parasite or virus in culture; type: cell-based, Guangxi pangolin-CoV (GX_P2V)
SARS-CoV-2 trVLP [9] = tested on: SARS-CoV-2 trVLP
in vitro [10] = settings: human, Caco-2
in vitro [11] = settings: African green monkey
[12] = tested on: SARS-CoV-2 pseudotyped virus; experiment: microbe, parasite or virus in culture; type: cell-based
[13] = tested on: SADS-CoV strain CN/GDWT/2017; experiment: cells; type: cell-based, swine acute diarrhoea syndrome coronavirus (SADS-CoV)
Vero E6 cells = experiment: cells; settings: Chlorocebus sabaeus, Vero C1008, 48 h, read-out: Cytoxicity (%)
[14] = Severe acute respiratory syndrome coronavirus 2, Vero C1008, read-out: SARS-CoV-2 (Vero E6) EC50
[15] = Middle East respiratory syndrome-related coronavirus, Huh-7, read-out: EC50 against MERS-CoV pseudotyped virus
[16] = Severe acute respiratory syndrome coronavirus 2, read-out: EC50 SARS-CoV-2 trVLP
[17] = Severe acute respiratory syndrome coronavirus
[18] = Porcine epidemic diarrhea virus, Huh-7, read-out: EC50 against PEDV
[19] = Vero C1008, 48 h, read-out: Percentage of Inhibition (%)
[20] = Vero C1008, read-out: EC50 GX_P2V
[21] = Huh-7, read-out: EC50 against SADS-CoV
[22] = Severe acute respiratory syndrome coronavirus 2, read-out: EC50 against SARS-CoV-2 trVLP
[23] = Vero C1008, read-out: EC50 against GX_P2V

Compound: COc1cc2c3cc1Oc1c(OC)c(OC)cc4c1[C@@H](Cc1ccc(O)c(c1)Oc1ccc(cc1)C[C@@H]3N(C)CC2)N(C)CC4 [Berbamine, berbamine]
- CC50 at 48 h (in vitro [1]): > 25 µM
- CC50 (in vitro [1]): > 25 µM
- EC50 [2, 14]: 19.9 µM
- EC50 [3, 15]: 3.37 µM
- Time of addition of anti-SARS-CoV-2 trVLPs activity, Entry (SARS-CoV-2 trVLP [4]): 49.832 and 46.966 and 50.173
- Time of addition of anti-SARS-CoV-2 trVLPs activity, Full-time (SARS-CoV-2 trVLP [4]): 90.853 and 91.022 and 89.926
- Time of addition of anti-SARS-CoV-2 trVLPs activity, Post-entry (SARS-CoV-2 trVLP [4]): 85.087 and 83.404 and 83.155
- EC50 (SARS-CoV-2 trVLP [5]; [16]): 8.15 µM
- EC50 [6, 17]: 5.55 µM
- EC50 (PEDV strain CV777; [18]): 0.5 µM
- Time of addition of anti-GX_P2V activity, Entry (GX_P2V [7]): 53.007 and 53.569 and 52.218
- Time of addition of anti-GX_P2V activity, Full-time (GX_P2V [7]): 99.845 and 99.848 and 99.866
- Time of addition of anti-GX_P2V activity, Post-entry (GX_P2V [7]): 93.479 and 93.373 and 93.128
- inhibition at 0.79588 µM (GX_P2V [8]; [19]): 33.8%
- inhibition at 1.09691 µM (GX_P2V [8]; [19]): 96.4%
- inhibition at 1.39794 µM (GX_P2V [8]; [19]): 100%
- inhibition at 1.69897 µM (GX_P2V [8]; [19]): 100%
- EC50 (GX_P2V [8]; [20]): 6.92 µM
- SI (SARS-CoV-2 trVLP, Caco 2-N) (SARS-CoV-2 trVLP [9]): > 6.13
- CC50 at 48 h (in vitro [10]): > 50 µM
- CC50 at 48 h (in vitro [11]): > 50 µM
- EC50 ([12]; Severe acute respiratory syndrome coronavirus 2, 24 h, read-out: EC50 against SARS-CoV-2 pseudotyped virus): 1.87 µM
- EC50 ([13]; Huh-7, read-out: EC50 SADS): 3.33 µM
- EC50 [13, 21]: 5.84 µM

Compound: COc1cc2c(cc1OC)[C@@H](Cc1ccc(Oc3cc(C[C@@H]4c5cc(OC)c(OC)cc5CCN4C)ccc3O)cc1)N(C)CC2 [Dauricine, dauricine]
- CC50 at 48 h (in vitro [1]): > 25 µM
- CC50 (in vitro [1]): > 12.5 µM
- EC50 [3, 15]: 2.13 µM
- Time of addition of anti-SARS-CoV-2 trVLPs activity, Entry (SARS-CoV-2 trVLP [4]): 75.941 and 76.217 and 74.799
- Time of addition of anti-SARS-CoV-2 trVLPs activity, Full-time (SARS-CoV-2 trVLP [4]): 87.622 and 86.812 and 85.889
- Time of addition of anti-SARS-CoV-2 trVLPs activity, Post-entry (SARS-CoV-2 trVLP [4]): 74.686 and 90.971 and 75.807
- EC50 (SARS-CoV-2 trVLP [5]; [16]): 2.84 µM
- EC50 [6, 17]: 2.63 µM
- Percentage of Inhibition (%) (PEDV strain CV777): 99.987%
- EC50 (PEDV strain CV777; [18]): 1.7 µM
- Stage of the viral life cycle affected (time-of-addition) (GX_P2V [7]): superior inhibitory activity during the entry stage compared with the post-entry stage
- Time of addition of anti-GX_P2V activity, Full-time (GX_P2V [7]): 94.280 and 92.940 and 93.040
- Time of addition of anti-GX_P2V activity, Post-entry (GX_P2V [7]): 24.420 and 36.380 and 19.300
- inhibition at 6.25 µM (GX_P2V [7]; Vero C1008, read-out: Inhibition against GX_P2V, full-time treatment): ~100%
- inhibition at 1.09691 µM (GX_P2V [8]; [19]): 10.1%
- inhibition at 1.39794 µM (GX_P2V [8]; [19]): 95.2%
- inhibition at 1.69897 µM (GX_P2V [8]; [19]): 100%
- EC50 (GX_P2V [8]; [20]): 15.7 µM
- EC50 (GX_P2V [8]; Vero C1008, read-out: EC50 against GX_P2V, repeated experiment): 13.1 µM
- SI (SARS-CoV-2 trVLP, Caco 2-N) (SARS-CoV-2 trVLP [9]): > 17.61
- CC50 at 48 h (in vitro [10]): > 50 µM
- CC50 at 48 h (in vitro [11]): > 50 µM
- EC50 ([12]; Severe acute respiratory syndrome coronavirus 2, read-out: EC50 SARS-CoV-2pseudotypedvirus): 6.58 µM
- Percentage of Inhibition (%) [13]: 99.922%
- EC50 [13, 21]: 0.84 µM

Compound: COc1cc2c(cc1OC)C(Cc1ccc(O)c(Oc3cc4c(cc3OC)CCN(C)C4Cc3ccc(O)cc3)c1)N(C)CC2 (stereo not shown) [Liensinine (34), liensinine]
- EC50 (SARS-CoV-2 trVLP [5]; [22]): 3.09 µM
- inhibition at 0.193 µM (GX_P2V [8]; [19]): 93.8%
- inhibition at 0.495 µM (GX_P2V [8]; [19]): 84.2%
- inhibition at 0.78 µM (GX_P2V [8]; [19]): 68.4%
- inhibition at 0.796 µM (GX_P2V [8]; [19]): 74.4%
- inhibition at 1.097 µM (GX_P2V [8]; [19]): 87.3%
- inhibition at 1.398 µM (GX_P2V [8]; [19]): 100%
- inhibition at 1.699 µM (GX_P2V [8]; [19]): 100%
- EC50 (GX_P2V [8]; [23]): 0.7 µM

Compound: COc1ccc2c(c1O)-c1c(O)c(OC)cc3c1[C@H](C2)[N+](C)(C)CC3 [Magnoflorine]
- inhibition at 0.79588 µM (GX_P2V [8]; [19]): 34.7%
- cytotoxicity at 0.193125 µM (Vero E6 cells): 3.29%
- cytotoxicity at 0.39 µM (Vero E6 cells): 1.03%
- cytotoxicity at 0.49485 µM (Vero E6 cells): 8.84%
- cytotoxicity at 0.79588 µM (Vero E6 cells): 10.2%
- cytotoxicity at 1.09691 µM (Vero E6 cells): 12.2%
- cytotoxicity at 1.39794 µM (Vero E6 cells): 15.3%
- cytotoxicity at 1.69897 µM (Vero E6 cells): 14.6%

Compound: COc1ccc(C[C@@H]2c3cc(Oc4cc(C[C@@H]5c6cc(OC)c(OC)cc6CCN5C)ccc4O)c(OC)cc3CCN2C)cc1 [Neferine (33), Neferine]
- EC50 (SARS-CoV-2 trVLP [5]; [22]): 6.24 µM
- inhibition at 0.193 µM (GX_P2V [8]; [19]): 92.5%
- inhibition at 0.495 µM (GX_P2V [8]; [19]): 91.2%
- inhibition at 0.796 µM (GX_P2V [8]; [19]): 91.6%
- inhibition at 1.097 µM (GX_P2V [8]; [19]): 100%
- inhibition at 1.398 µM (GX_P2V [8]; [19]): 100%
- inhibition at 1.699 µM (GX_P2V [8]; [19]): 100%
- EC50 (GX_P2V [8]; [23]): 0.98 µM

Compound: CCC(CC)COC(=O)[C@H](C)N[P@](=O)(OC[C@H]1O[C@@](C#N)(c2ccc3c(N)ncnn23)[C@H](O)[C@@H]1O)Oc1ccccc1 [Remdesivir (30), remdesivir, reference compound]
- EC50 [2, 14]: 2.19 µM
- EC50 (SARS-CoV-2 trVLP [5]; [22]): 0.11 µM
- inhibition at 0.193 µM (GX_P2V [8]; [19]): 91.6%
- inhibition at 0.495 µM (GX_P2V [8]; [19]): 41.5%
- inhibition at 0.796 µM (GX_P2V [8]; [19]): 90.9%
- inhibition at 1.097 µM (GX_P2V [8]; [19]): 99.8%
- inhibition at 1.398 µM (GX_P2V [8]; [19]): 100%
- inhibition at 1.699 µM (GX_P2V [8]; [19]): 100%
- EC50 (GX_P2V [8]; [23]): 1.64 µM
- cytotoxicity at 0.796 µM (Vero E6 cells): 6.65%
- cytotoxicity at 1.097 µM (Vero E6 cells): 10.7%
- cytotoxicity at 1.398 µM (Vero E6 cells): 9.43%
- cytotoxicity at 1.699 µM (Vero E6 cells): 12.3%

Compound: COc1ccc2cc1Oc1ccc(cc1)CC1c3cc(c(OC)cc3CCN1C)Oc1c(OC)c(OC)c(O)c3c1C(C2)N(C)CC3 (stereo not shown) [Thalidezine (35), thalidezine]
- EC50 (SARS-CoV-2 trVLP [5]; [22]): 4.37 µM
- inhibition at 0.495 µM (GX_P2V [8]; [19]): 53.4%
- inhibition at 0.796 µM (GX_P2V [8]; [19]): 99.8%
- inhibition at 1.097 µM (GX_P2V [8]; [19]): 100%
- inhibition at 1.398 µM (GX_P2V [8]; [19]): 100%
- inhibition at 1.699 µM (GX_P2V [8]; [19]): 100%
- EC50 (GX_P2V [8]; [23]): 2.74 µM

Compound: COc1ccc2cc3[n+](cc2c1OC)CCc1cc2c(cc1-3)OCO2 [berberine (2), berberine, reference compound]
- inhibition at 0.49485 µM (GX_P2V [8]; [19]): 52.1%
- cytotoxicity at 0.193125 µM (Vero E6 cells): 7.94%
- cytotoxicity at 0.49485 µM (Vero E6 cells): 11.2%

Compound: isotetrandrine
- EC50 ([2]; read-out: SARS-CoV-2 (Vero E6) EC50): 4.47 µM
- EC50 ([3]; read-out: EC50 against MERS-CoV pseudotyped virus): 3.31 µM
- Time of addition of anti-SARS-CoV-2 trVLPs activity, Full-time (SARS-CoV-2 trVLP [4]): 69.205 and 66.812 and 64.054
- Time of addition of anti-SARS-CoV-2 trVLPs activity, Post-entry (SARS-CoV-2 trVLP [4]): 57.048 and 54.613 and 56.353
- Percentage of Inhibition (%) [6]: 83.000% and 63.000%
- EC50 [6]: 4.77 µM
- EC50 (PEDV strain CV777; read-out: EC50 against PEDV): 1.67 µM
- Time of addition of anti-GX_P2V activity, Entry (GX_P2V [7]): 64.671 and 52.909 and 54.392
- Time of addition of anti-GX_P2V activity, Full-time (GX_P2V [7]): 95.271 and 94.111 and 93.848
- Time of addition of anti-GX_P2V activity, Post-entry (GX_P2V [7]): 79.054 and 80.217 and 78.230
- Percentage of Inhibition (%) (GX_P2V [8]): 100%
- EC50 (GX_P2V [8]; read-out: EC50 GX_P2V): 7.43 µM
- EC50 (SARS-CoV-2 trVLP [9]; read-out: EC50 SARS-CoV-2 trVLP): 2.82 µM
- EC50 ([12]; read-out: EC50 SARS-CoV-2pseudotypedvirus): 7.32 µM
- EC50 ([13]; read-out: EC50 against SADS-CoV): 3.67 µM

Reference: publication PMC10879537 (Nature Communications, 2024)
